One experiment concerns TSLP. Description: Calcipotriol-induced TSLP in vivo. As to conditions: CD1 mice, calcipotriol 4 nmol/ear, 24 hours. From the text:
CD1 mice were topically exposed to 4 nmol/ear Calcipotriol. Five minutes after challenge compounds were applied. Twenty-four hours later, protein samples were extracted from ear skin biopsies and analyzed for TSLP levels by ELISA method. Vehicle for compounds were 60:40 EtOH:H2O (Compound C) or 1:1 EtOH:Acetone (AN2728). Data represents average±S.E. of a representative set from 2 independent experiments (n=6 mice per group). *p value<0.05; **p value≤0.01 by Student t test compared to Calcipotriol+vehicle-only treated animals. ns equals not significant.

A further experiment has as its system IL-8. The experiment is described as follows: P. acnes-induced IL-8 on human NHEKs. The experiment is classed as cell-based. As to conditions: for IC50: Homo sapiens, NHEK, live P. acnes 10^7 CFU, 24 hours, ELISA, read-out: P. acnes-NHEK IL-8 Protein IC50; for P. acnes-induced IL-8 production: cultured human keratinocytes exposed to P. acnes. As to the method:
Normal human epidermal keratinocytes (NHEKs) from neonatal donors were obtained from Thermo-Fisher (Cat No. C-001-5C). Cells were cultured in 96-well plates for 24 hours with EpiLife media (Cat No. MEPI500CA) supplemented with keratinocytes growth supplement (Cat No. S0015). On Day 2, media was removed and replaced with supplement-depleted medium for 24 hours. On Day 3, media was removed and cells were pre-treated with test materials ([…]) for 2 hours and later co-treated with test materials and live P. acnes (ATCC® 6919TM) at 10^7 CFU for 24 hours at 37° C. and 5% CO2. After incubation, cell media supernatants were harvested and used to measure pro-inflammatory cytokine levels (IL-8) using ELISA kits (BD Biosciences® #555244). Results were represented as percent of inhibition relative to untreated and P. acnes-only treated cells. IC50 values were determined by non-linear regression analysis using the four-parameter logistic equation.
(An ELISA detects its analyte on a solid surface through an enzyme-linked reagent.)

In another experiment the test system is IL1B (IL-1b). The experiment is described as follows: P. acnes-induced IL-1b gene on human PBMCs (qPCR). Type of experiment: cell-based. To be noted: PBMC, PBMCs + live P. acnes 1:1, test material 30 PM, 24 hours. The procedure: Cryopreserved human Peripheral Blood Mononuclear cells (PBMCs) from healthy adult donors were obtained from Zen Bio, Inc (Cat No. SER-PBMC-F). Cells were cultured in 12-well plates with lymphocyte media (Cat No. LYMPH-1) and incubated with test materials ([…]) and live P. acnes (ATCC® 6919TM) at 1:1 PBMC: P. acnes bacteria ratio for 24 hours at 37° C. and 5% CO2. After incubation, cell media supernatants were harvested and used to measure pro-inflammatory cytokine levels (IL-8, TNF-α, IL-1b, IL-17) using ELISA kits (BD Biosciences® #557966, #555212, #555244; R&D Systems® #DY317). Total RNA was extracted from cells using the RNAqueous® kit (Ambion®; Cat No. 1912) and cDNA was obtained using the High Capacity RNA-to-cDNA kit (Applied Biosystems®; Cat No. 4387406). Quantitative PCR (qPCR) was performed using the TaqMan® Fast Advanced Master Mix (Applied Biosystems®; Cat No. 4444556) and specific TaqMan®-probes human gene primers CXCL8 (IL-8), IL1B (IL-1b), TNF (TNF-α), IL17A (IL-17A) and GAPDH to calculate the relative gene fold expression change per treatment. Gene expression analysis was performed using the comparative Ct method (also known as the 2-[delta][delta]Ct) approach by comparing the Ct values of P. acnes-only treated cells with the untreated samples and normalized to GAPDH gene expression as endogenous housekeeping gene.

In the next experiment the test system is PHA-induced cytokines. Description: PHA-induced cytokines on PBMCs (Example F). Type of experiment: cell-based, human. As to conditions: PHA-L instead of anti-CD3/CD28 beads. The procedure:
Cryopreserved human Peripheral Blood Mononuclear cells (PBMCs) from healthy adult donors were obtained from Zen Bio, Inc (Cat No. SER-PBMC-F). Cells were cultured in 96-well plates with lymphocyte media (Cat No. LYMPH-1) and were pre-treated with test materials (≤100 μM) for 2 hours and later co-treated with test materials and anti-CD3/CD28 beads (Thermo-Fisher; Cat No. 11131D) at 1:0.4 PBMC:bead ratio for 24 hours at 37° C. and 5% CO2. After incubation, cell media supernatants were harvested and used to measure cytokine levels (IL-4, IL-5, IL-10) using ELISA kits (BD Biosciences® #555194, #555157; R&D Systems® #DY317). Results were represented as percent of inhibition relative to untreated and anti-CD3/CD28 beads-only treated cells. IC50 values were determined by non-linear regression analysis using the four-parameter logistic equation.
By a similar method, but instead of anti-CD3/CD28 beads (Thermo-Fisher; Cat No. 11131D), compounds A, C, T and E were treated with LPS (Sigma Aldrich, Cat. No. LF4321) to measure inhibition of LPS-induced cytokines, and compounds C and T were treated with PHA-L (Sigma Aldrich, Cat No. 11249738001) to measure inhibition of PHA-induced cytokines.

Experiment [1] relates to subjects with mild to moderate acne. Description: 8-week clinical study in subjects with mild to moderate acne. Also on record: scale not given here. To be noted: E 1% w/w, BPO 3% w/w, human. Type of experiment: in vivo. The source says: Subjects used the assigned product at home for 8 weeks. Subjects returned post baseline at week 2, 4 and 8. At each visit subjects underwent expert clinical grading and test site photography. […] The severity of acne signs and symptoms on the faces of >18 yo subjects were clinically assessed by IGA scale during an 8-week Study period. In addition, UV light mode was utilized to observe porphyrins fluorescence (orange-red dots).

By IC50 is commonly meant the concentration that inhibits the measured activity by half. As usually defined, the inhibition is the relative decrease from the control value, in per cent.

As to `N#Cc1ccc(Oc2ccc3c(c2)COB3O)cc1` [AN2728, reference compound], the “AVG - TSLP” value with TSLP (topical dose 4.0 μg/ear) is 2495.1 pg/6 mm biopsy; with TSLP (topical dose 40.0 μg/ear) it was 2235.3 pg/6 mm biopsy; with TSLP (topical dose 400.0 μg/ear), 352.1 pg/6 mm biopsy. Further, the figures for the TSLP % inhb in the experiment on TSLP (topical dose 4.0 μg/ear), in the experiment with TSLP (topical dose 40.0 μg/ear) and in the experiment with TSLP (topical dose 400.0 μg/ear) were 51%, 57% and 102%, respectively.

For the molecule `C/C(=C\CSCC(NC(=O)NCC(=O)O)C(=O)O)CCCC(C)CCCC(C)CCCC(C)C` (stereo not shown) [A], in the experiment with IL-8, the IC50 was 120 nM.

For `C/C(=C\CSC[C@H](NC(=O)N(C)CC(=O)O)C(=O)O)CCCC(C)CCCC(C)CCCC(C)C` (stereo partly drawn) [Compound C, (2R)-2-{[(carboxymethyl)(methyl)carbamoyl]amino}-3-{[(2E)-3,7,11,15-tetramethylhexadec-2-en-1-yl]sulfanyl}propanoic acid], the “AVG - TSLP” value in the experiment with TSLP (topical dose 4.0 μg/ear) came out at 2753.6 pg/6 mm biopsy; in the experiment on TSLP (topical dose 40.0 μg/ear), 1156.1 pg/6 mm biopsy; in the experiment with TSLP (topical dose 400.0 μg/ear) it was 759.9 pg/6 mm biopsy. For the same molecule, the TSLP % inhb in the experiment on TSLP (topical dose 4.0 μg/ear) worked out at 15%; with TSLP (topical dose 40.0 μg/ear) it was 74%; in the experiment with TSLP (topical dose 400.0 μg/ear), 88%. Also, the inhibition at 30 pM in the experiment on IL1B (IL-1b) turned out to be 0%. Moreover, the IC50 in the experiment with IL-8 was determined as 40 nM. For the same molecule, the “inhibition of PHA-induced cytokines” value in the experiment with PHA-induced cytokines is recorded as “did not show significant inhibition”.

With `C/C(=C\CSC[C@H](NC(=O)N1CCC[C@H]1C(=O)O)C(=O)O)CCCC(C)CCCC(C)CCCC(C)C` (stereo partly shown) [Compound E], the inhibition at 30 pM with IL1B (IL-1b) came to 20%. Also, the “Investigator Global Assesment (IGA) Scale” value in experiment [1] (2 week) came out at 2; in experiment [1] (4 week), 1; in experiment [1] (8 week), 0; in experiment [1] (Baseline) it was 3. Besides, the IC50 in the experiment on IL-8 was 3 nM. Further, the “P. acnes-induced IL-8 production” value in the experiment on IL-8 was “inhibit IL-8 production”.

As for `C/C(=C\CSCC(NC(=O)N(CC(=O)O)CC(=O)O)C(=O)O)CCCC(C)CCCC(C)CCCC(C)C` (stereo not shown) [Compound G], the inhibition at 30 pM in the experiment on IL1B (IL-1b) was 10%. For the same molecule, in the experiment with IL-8, the IC50 worked out at 68 nM and the “P. acnes-induced IL-8 production” value is reported as “inhibit IL-8 production”.

Turning to `C/C(=C\CSC[C@H](NC(=O)COCC(=O)O)C(=O)O)CCCC(C)CCCC(C)CCCC(C)C` (stereo partly shown) [Compound T], the inhibition at 30 pM in the experiment on IL1B (IL-1b) came out at 27%. The “inhibition of PHA-induced cytokines” value with PHA-induced cytokines is reported as “did not show significant inhibition”.

The record behind these values is patent publication US11802107B2, “Compounds and methods of use” (Signum Biosciences, Inc., priority 2017, dated 2023).
